In the NIST ThermoML archive (doi:10.1021/je0500431):

Assay: xn = mol fraction of the nth substance listed
Conditions: Ring tensiometer

CCCCCO [pentan-1-ol] + OCc1ccccc1
x1 = 1
Conditions	surface tension liquid-gas [mN/m]
293.15 K	25.69
298.15 K	25.29
303.15 K	24.86
308.15 K	24.49
313.15 K	24.06
318.15 K	23.67
323.15 K	23.3

OCc1ccccc1 [benzenemethanol] + CCC(C)O
surface tension liquid-gas [mN/m]
Conditions	x2 = 0	x2 = 0.0026	x2 = 0.0056	x2 = 0.0078	x2 = 0.0107	x2 = 0.0246	x2 = 0.0366	x2 = 0.0512
293.15 K	39.05	37.5	37.14	36.95	36.4	36.07	35.65	35.32
298.15 K	38.58	37.08	36.75	36.52	36.05	35.64	35.25	34.88
303.15 K	38.12	36.63	36.31	36.12	35.72	35.18	34.83	34.4
308.15 K	37.63	36.2	35.97	35.71	35.39	34.77	34.46	34
313.15 K	37.16	35.75	35.55	35.31	35.03	34.37	34.03	33.54
318.15 K	36.63	35.35	35.17	34.9	34.67	33.95	33.62	33.07
323.15 K	36.18	34.95	34.8	34.49	34.34	33.5	33.24	32.7

CC(C)O [propan-2-ol] + OCc1ccccc1
x1 = 1
Conditions	surface tension liquid-gas [mN/m]
293.15 K	21.3
298.15 K	20.95
303.15 K	20.55
308.15 K	20.2
313.15 K	19.83
318.15 K	19.47
323.15 K	19.09

OCc1ccccc1 [benzenemethanol] + CCCC(C)O
surface tension liquid-gas [mN/m]
Conditions	x2 = 0	x2 = 0.0026	x2 = 0.0055	x2 = 0.0093	x2 = 0.0129	x2 = 0.0238	x2 = 0.0344	x2 = 0.0542
293.15 K	39.05	36.98	36.71	36.43	35.99	35.72	35.49	35.08
298.15 K	38.58	36.48	36.22	35.95	35.54	35.32	35.08	34.61
303.15 K	38.12	35.95	35.7	35.53	35.15	34.9	34.71	34.1
308.15 K	37.63	35.46	35.18	35	34.73	34.49	34.32	33.61
313.15 K	37.16	34.97	34.73	34.54	34.33	34.05	33.93	33.1
318.15 K	36.63	34.44	34.18	34.07	33.91	33.63	33.49	32.69
323.15 K	36.18	33.91	33.65	33.56	33.55	33.28	33.11	32.19

CCCCO [butan-1-ol] + OCc1ccccc1
x1 = 1
Conditions	surface tension liquid-gas [mN/m]
293.15 K	24.16
298.15 K	23.7
303.15 K	23.26
308.15 K	22.78
313.15 K	22.39
318.15 K	21.99
323.15 K	21.53
